Laboratory results from US5081112A, “Method for treating hyperlipidemia” (Otsuka Pharmaceutical Factory Inc., priority 1986, dated 1992).
Read-outs that look alike come from different tables or passages of the source.

Key:
[1] = test system: Triton WR-1339-induced hyperlipidemia in rat; test: antilipotropic effect in Triton WR-1339-induced hyperlipidemia in rat; format: in vivo, Wistar-strain male rats; conditions: 50 mg/kg oral, vs control
Description: Wistar-strain male rats of 5-9 week age were used as test animals. One test group consisting of six (6) rats.
[a] is a determined value obtained from the control group, and
[b] is a determined value obtained from the test group).

[2] = test system: biosynthetic pathway of cholesterol; test: inhibitory effect in biosynthetic pathway of cholesterol; format: biochemical; conditions: 10^-4 M; rat liver microsomes and soluble fraction; 90 min, 100 µM
Description: Test for determining inhibitory effect in biosynthetic pathway of cholesterol
Each one of the test compounds was added to rat liver microsomes fraction (containing 0.2 mg of protein) and soluble fraction (containing 2 mg of protein), then the volume of the mixture was adjusted to 100 microliters by adding 0.1 M-potassium phosphate buffer solution (pH 7.4), then this mixture was incubated at 37° C. for 10 minutes.
After the incubation, the reaction was started by adding 200 microliters of a solution containing 1 mM ATP, 10 mM glucose-1-phosphate, 6 mM glutathione, 6 mM MgCl2, […], 0.25 mM […], 0.25 mM NADP, and 1 mM [1-^14 C] sodium acetate (3.0 mCi/mM).
The whole mixture was incubated at 37° C. for 90 minutes, then the reaction was terminated by adding […] of 15%-KOH (a 95% ethanol solution), next 2 mg of cholesterol was added thereto, saponified at 75° C. for 1 hour, and cholesterol was extracted with petroleum ether, the extract was concentrated to dryness. To the residue thus obtained was added with 2.5 ml of a mixture of acetone-diethyl ether (1:1) and 2.5 ml of 1%-digitonin (a 50% ethanol solution), then this solution was allowed to stand for 1 hour in cooling condition by using ice-water to precipitate cholesterol. The precipitate was washed with acetone, a mixture of acetonediethyl ether (1:1) and diethyl ether in this order, then the radioactivity of the residue was measured by using a liquid scintillation counter.
(§1) Control test was also conducted by the procedures similar to those mentioned above in the test group, except that each one of the test compounds was not used.
Inhibitory effect in biosynthetic pathway of cholesterol performed by each one of the test compounds was calculated, in terms of inhibitory ratio (%), from the formula on the basis of the radioactivity of the control group as follows: [formula] (wherein
[c] is a radioactivity of the control group, and
[d] is a radio activity of the test group).

[3] = test system: acyl-CoA:cholesterol acyltransferase (ACAT); test: inhibitory effect in the enzymatic activities of acyl-CoA:cholesterol acyltransferase (ACAT); format: biochemical; conditions: rat liver microsomes, 2 min; for Inhibitory effect to ACAT (inhibitory ratio): 10^-4 M, 100 µM; for Inhibitory effect to ACAT (inhibitory ratio), Table 5: head prints 10^14 M
Description: Test for determining inhibitory effect in the enzymatic activities of acyl-CoA:cholesterol acyltranferase (ACAT)
50 Microliters of each one of the test compounds was added to rat liver microsomes fraction (containing 0.4 mg of protein) of which volume was adjusted to 150 microliters by adding 0.15 M-potassium phosphate buffer solution (pH 7.4), then the mixture was incubated at 37° C. for 10 minutes. After the incubation, the reaction was started by adding 50 microliters of 0.15 M-potassium phosphate buffer solution (pH 7.4) containing 18 nM [1-^14 C] oleoyl-CoA (10 mCi/mM) and 0.6 mg BSA (bovine serum albumin) at 37° C. for 2 minutes. The reaction was terminated by adding 1 ml of ethanol, then 4 ml of n-hexane was added and shaken, then the n-hexane layer (upper layer) was concentrated to the volume of 3 ml under nitrogen gas stream, thus obtained cholesteryl oleate was isolated by means of a silica gel thin chromatography [developing solvent=petroleum ether: diethyl ether (95:5)] and the radioactivity was measured by using a liquid scintillation counter.
as §1
Inhibitory effect in the enzymatic activities of acyl-CoA:cholesterol acyltransferase (ACAT) performed by each one of the test compounds was calculated, in terms of inhibitory ratio (%), from the formula on the basis of the radioactivity of the control group as follows: [formula] (wherein
[e] is a radioactivity of the control group, and
[f] is a radioactivity of the test group).

[4] = test system: plasma high density lipoprotein cholesterol (HDLC); test: increasing rate of plasma high density lipoprotein cholesterol (HDLC) concentration; format: in vivo, male Wistar rats; conditions: 300 mg/kg/day oral for 2 days; rat; vs control
Description: Increasing rate (%) of plasma high density lipoportein cholesterol (HDLC) concentration which is performed by a carboxamide compound of the general formula (I) of the present invention was conducted as follows.
Seven-week-old male Wistar rats were used.
The test compound was orally administered for 2 days at a daily dose of 300 mg/kg body weight to each of six (6) rats in test group. The dosing vehicle was 0.5% sodium carboxylmethylcellulose solution, and the dosing volume was 5 ml/kg body weight.
Similar to the procedures taken to the rats in the test group, to each one of six (6) rats in control group was orally administered 0.5% sodium carboxymethylcelluose solution only.
On day 2, after fasting for 20 hours, blood was drawn from the jagular sinus with a heparinized syringe. Plasma was obtained by centrifugation.
Plasma HDLC was determined after precipitation of other lipid fraction with heparin and Ca^2+ by using HDL-C Kit-N (manufactured by Hihon Shoji Kabushiki Kaisha).
Increasing rate (%) of plasma HDLC concentration performed by a test compound was calculated from the formula as follows: [formula]

[5] = 24 hours after Triton WR-1339 (400 mg/kg, tail vein), read-out: lowering ratio of serum triglycerides, 24 hours after Triton WR-1339
[6] = 24 hours after Triton WR-1339 (400 mg/kg, tail vein), read-out: lowering ratio of total serum cholesterol, 24 hours after Triton WR-1339
[7] = 48 hours after Triton WR-1339 (400 mg/kg, tail vein), read-out: lowering ratio of serum triglycerides, 48 hours after Triton WR-1339
[8] = 48 hours after Triton WR-1339 (400 mg/kg, tail vein), read-out: lowering ratio of total serum cholesterol, 48 hours after Triton WR-1339
[9] = 24 hours after Triton WR-1339 (400 mg/kg, tail vein)
[10] = 48 hours after Triton WR-1339 (400 mg/kg, tail vein)

| Compound | Inhibitory ratio of cholesterol biosynthesis [2] | Inhibitory effect to ACAT (inhibitory ratio) [3] | Inhibitory effect to ACAT (inhibitory ratio), Table 5 [3] | further results |
| --- | --- | --- | --- | --- |
| CCOP(=O)(Cc1ccc(C(=O)Nc2ccc(C)cc2)cc1)OCC [compound 22] | 32.2% | – | – | inhibition in vivo at 50 mg/kg [1, 5]: 38.6%; inhibition in vivo at 50 mg/kg [1, 6]: 6.9%; inhibition in vivo at 50 mg/kg [1, 7]: 28.1%; inhibition in vivo at 50 mg/kg [1, 8]: 29% |
| CCOP(=O)(Cc1ccc(C(=O)N(Cc2ccccc2)c2cccc(C(F)(F)F)c2)cc1)OCC [compound 50] | 78.2% | 84.8% | – | – |
| CCOP(=O)(Cc1ccc(C(=O)Nc2ccc(C#N)cc2I)cc1)OCC [compound 77] | – | – | – | Increasing rate (%) of high density lipids concentration in the serum (plasma HDLC) [4]: 184% |
| CCOP(=O)(Cc1ccc(C(=O)Nc2ccc(Br)c(C#N)c2)cc1)OCC [compound 76] | – | – | – | Increasing rate (%) of high density lipids concentration in the serum (plasma HDLC) [4]: 111% |
| CCOP(=O)(Cc1ccc(C(=S)Nc2ccccc2)cc1)OCC [compound 70] | – | 39.4% | – | – |
| O=C(Nc1c(Cl)cccc1Cl)c1ccc(CP(=O)(Oc2ccccc2)Oc2ccccc2)cc1 [compound 29] | 35.8% | – | 73.9% | – |
| CCOP(=O)(Cc1ccc(C(=O)N(c2ccccc2)C(C)C)cc1)OCC [compound 32] | 36.4% | – | 20.1% | – |
| 4-diethoxyphosphinoylmethyl-N-(4-bromo-2-cyanophenyl)benzamide [Test compound No. 71] | 56.6% | – | 79.2% | lowering ratio of serum triglycerides, 24 hours after Triton WR-1339 [1, 9]: 85.3%; lowering ratio of total serum cholesterol, 24 hours after Triton WR-1339 [1, 9]: 51.6%; lowering ratio of serum triglycerides, 48 hours after Triton WR-1339 [1, 10]: 95.9%; lowering ratio of total serum cholesterol, 48 hours after Triton WR-1339 [1, 10]: 67.9% |
| CCOP(=O)(Cc1ccc(C(=O)N(Cc2ccccc2F)c2ccccc2)cc1)OCC [compound 41] | 84.2% | 84.0% | – | – |
| CC(C)OP(=O)(Cc1ccc(C(=O)NCCc2ccccc2)cc1)OC(C)C [compound 11] | 67.4% | – | 83.3% | inhibition in vivo at 50 mg/kg [1, 5]: 0%; inhibition in vivo at 50 mg/kg [1, 6]: 13.5%; inhibition in vivo at 50 mg/kg [1, 7]: 56.8%; inhibition in vivo at 50 mg/kg [1, 8]: 32.6% |
| CCOP(=O)(Cc1ccc(C(=O)N2CCN(c3ccc(Cl)cc3)CC2)cc1)OCC [compound 58] | 58.4% | 56.6% | – | – |
| CCOP(=O)(Cc1cccc(C(=O)Nc2ccccc2)c1)OCC [compound 64] | – | – | 37.6% | – |
| CCOP(=O)(Cc1ccc(C(=O)Nc2ccc(Cl)cc2C#N)cc1)OCC [compound 72] | – | – | – | Increasing rate (%) of high density lipids concentration in the serum (plasma HDLC) [4]: 196% |
| CCOP(=O)(Cc1ccc(C(=O)N(c2ccccc2)c2ccccc2)cc1)OCC [compound 36] | 61.1% | – | 63.1% | – |
| CCOP(=O)(Cc1ccc(C(=O)Nc2ccccc2C(=O)O)cc1)OCC [compound 66] | – | 26.0% | – | – |
| CCOP(=O)(Cc1ccc(C(=O)N(Cc2ccccc2)c2cc(OC)c(OC)c(OC)c2)cc1)OCC [compound 52] | 65.6% | 60.5% | – | – |
| CCOP(=O)(Cc1ccc(C(=O)N(Cc2ccccc2)c2ccc([N+](=O)[O-])cc2)cc1)OCC [compound 10] | 75.6% | 69.4% | – | inhibition in vivo at 50 mg/kg [1, 5]: 26.9%; inhibition in vivo at 50 mg/kg [1, 6]: 0%; inhibition in vivo at 50 mg/kg [1, 7]: 68.7%; inhibition in vivo at 50 mg/kg [1, 8]: 16.1% |
| CCOP(=O)(Cc1ccc(C(=O)Nc2ccc(C#N)cc2Cl)cc1)OCC [compound 73] | – | – | – | Increasing rate (%) of high density lipids concentration in the serum (plasma HDLC) [4]: 187% |
| CCOP(=O)(Cc1ccc(C(=O)NCCC(c2ccccc2)c2ccccc2)cc1)OCC [compound 31] | 65.4% | – | 87.7% | – |
| CCOP(=O)(Cc1ccc(C(=O)N(Cc2ccccc2)c2ccccc2)cc1)OCC [compound 65] | – | 87.7% | – | – |
| CCCCCCNC(=O)c1ccc(C(C)P(=O)(OC(C)C)OC(C)C)cc1 (stereo not drawn) [compound 26] | 67.4% | – | 88.9% | – |
| CCOP(=O)(Cc1ccc(C(=O)Nc2ccc(C#N)cc2Br)cc1)OCC [compound 75] | – | – | – | Increasing rate (%) of high density lipids concentration in the serum (plasma HDLC) [4]: 222% |
| CCOP(=O)(Cc1ccc(C(=O)Nc2ccc(Br)cc2C#N)cc1)OCC [compound 71] | – | – | – | Increasing rate (%) of high density lipids concentration in the serum (plasma HDLC) [4]: 193% |
| CCCCCCNC(=O)c1ccc(C(C)P(=O)(OCC)OCC)cc1 (stereo not drawn) [compound 63] | 58.9% | 88.9% | – | – |
| CCOP(=O)(Cc1ccc(C(=O)Nc2cccc(C(F)(F)F)c2)cc1)OCC [compound 27] | 36.2% | – | 39.5% | – |
| CCOP(=O)(Cc1ccc(C(=O)Nc2ccc(I)cc2C#N)cc1)OCC [compound 74] | – | – | – | Increasing rate (%) of high density lipids concentration in the serum (plasma HDLC) [4]: 187% |
| CCOP(=O)(Cc1ccc(C(=O)N(Cc2ccccc2)C2CCCCC2)cc1)OCC [compound 45] | 76.9% | – | – | – |
